Results reported in patent US20180296531A1, “STIMULATION OF 11B-HSD2 EXPRESSION TO IMPROVE HORMONAL THERAPY OF STEROID-DEPENDENT DISEASE” (THE CLEVELAND CLINIC FOUNDATION, priority 2015, published 2018).

Key:
Erlin-2 = assay: Immunoblot of Erlin-2 in LAPC4 cells and human prostate tissues; assay type: cell-based
Experimental: (§1) For protein analysis, immunoblots were performed as described previously. Li et al., J Clin Endocrinol Metab 98, E1189-1197 (2013). Briefly, total cellular protein was extracted with ice cold RIPA lysis buffer (Sigma-Aldrich) containing protease inhibitors (Roche). 30-50 μg protein was separated by 8% SDS-PAGE gel and then transferred to a nitrocellulose membrane (Millipore). After incubating with the anti-11β-HSD2 antibody (Santa Cruz; 1:3000), anti-11β-HSD1 antibody (Santa Cruz; 1:1000), GR antibody (BD Biosciences; 1:1000), anti-Erlin-2 antibody (Cell Signaling Technology: 1:1000) or anti-AMFR antibody (Proteintech; 1:1000) overnight at 4° C., the appropriate secondary antibody was incubated for 1 hour at room temperature. The chemiluminescent detection system (Thermo Scientific) was used to detect the bands with peroxidase activity. An anti-β-actin antibody (Sigma-Aldrich; 1:5000) was used as a control for sample loading.
Seven fresh prostate tissue cores (60-80 mg) from Patients #5-#11 were obtained from the peripheral zone of radical prostatectomy specimens at Cleveland Clinic, confirmed to have tumor in or in close proximity to cores by an expert prostate cancer pathologist, minced and aliquoted to two parts. One was treated with 10 nM DHEA plus vehicle, and the other was treated with 10 nM DHEA plus 10 μM Enz. […]

[1] = test system: LAPC4 human prostate cancer cell line; assay: Cell line cortisol metabolism: conversion of [3H]-cortisol to cortisone, HPLC
tumor corticosterone = assay: Mass spectrometry of corticosterone in xenograft tumors; assay type: in vivo, mouse
Experimental: Xenograft analysis. At least 24 mg tumor tissue (n=18) was homogenized with 1 ml LC-MS grade water (Fisher) by using homogenizer. The mixture was then centrifuged. 800 μl of the supernatant was transferred to a glass tube, followed by the addition of 80 μl of 10 ng/ml internal standard (corticosterone-d8) (Steraloids). The steroids and the internal standard were extracted with methyl tert butyl ether (Across) evaporated to dryness under N2 then reconstituted with 500 μl of 50% methanol.
The LC-MS/MS system contains an ultra-pressure liquid chromatography system (Shimadzu Corporation, Japan) which is consisted of two LC-30AD pumps, a DGU-20A5R degasser, a CTO-30A column oven, SIL-30AC autosampler, and a system controller CBM-20A and coupled with a Qtrap 5500 mass spectrometer (AB Sciex). Data acquisition and processing were performed using Analyst® software (version 1.6.2) from ABSciex.
Steroids were ionized using electrospray ionization in positive mode. Quantification of analytes was performed using multiple reaction monitoring. The mass transitions for corticosterone, 11-dehydrocorticosterone, and internal standard are 347.3/121.0, 345.3/121.0, and 355.3/125.0, respectively. Separation of steroids was achieved using a Zorbax Eclipse plus C18 column (Agilent) using mobile phase consisting of (A) 0.2% formic acid in water and (B) 0.2% formic acid in (methanol:acetonitrile, 60:40) with a gradient program at a flow rate of 0.2 ml/min. Sample injection volume was 10 μl.

[2] = test system: LAPC4 and VCaP CRPC xenografts; assay: Mouse xenograft studies: tumor growth and progression-free survival; assay type: in vivo
Experimental: All mouse studies were performed under a protocol approved by the Institutional Animal Care and Use Committee (IACUC) of the Cleveland Clinic Lerner Research Institute. All NSG male mice (6-8 weeks old) were purchased from the Jackson Laboratory and the number of mice used in this study was based on previously published mouse xenograft studies by our lab that determined effects of steroid pathway inhibition/augmentation on xenograft growth. Mice were surgically orchiectomized and implanted with DHEA pellets to mimic human adrenal DHEA production in patients with CRPC. 1 week later, mice were prepared for cell injections.
For the evaluation of the 11β-HSD2 role in reversing enzalutamide resistance, either 10^7 vector control or 10^7 11β-HSD2 overexpressing LAPC4 or VCaP cells (100 μl in 50% matrigel and 50% growth media) were subcutaneously injected into mice. When tumors reached 100 or 150 mm^3 (length×width×height×0.52), for LAPC4 and VCaP xenografts, respectively, the mice were arbitrarily divided into 2 groups each for vector and 11β-HSD2 overexpressing cells: Enz diet 62.5 mg/kg and or chow alone groups. Tran et al., Science 324, 787-790 (2009). Based on the daily chow consumption, approximately 0.3125 mg Enz was consumed per mouse per day. Enz in chow and chow alone were obtained from Medivation. Tumor volume was measured every other day, and progression-free survival was assessed as time to 3-fold (LAPC4) or 1.5-fold (VCaP) increase in tumor volume (from 100 or 150 mm^3) from the time Enz or chow alone was initiated. The number of mice in the LAPC4 Vector/Ctrl, Vector/Enz, 11β-HSD2/Ctrl and 11β-HSD2/Enz groups were 9, 9, 10, and 11, respectively. The number of mice in the VCaP Vector/Ctrl, Vector/Enz, 11β-HSD2/Ctrl and 11β-HSD2/Enz groups were 6, 6, 5, and 8, respectively. Numbers of mice in each treatment group were determined by those that survived surgical procedures and had reached a tumor volume to initiate treatment.
For evaluation of the role of AMFR in reversing enzalutamide resistance, either 10^7 control or 10^7 AMFR knockdown LAPC4 cells (100 μl in 50% matrigel and 50% growth media) were subcutaneously injected into mice. The remaining procedures were performed as described above. The number of mice in the LAPC4 shCtrl/Enz and shAMFR/Enz groups were 6, and 10, respectively. Protein levels of 11β-HSD2 in the shCtrl and control or shAMFR LAPC4 xenografts were analyzed by immunoblot. Briefly, ˜40-50 mg xenograft tissue was minced into pieces and then added into soft tissue homogenizing CK14 tubes (Betin Technologies) with 150 μl RIPA buffer containing protease inhibitors. Xenograft tissues were homogenized with a homogenizer (Minilys, Betin Technologies) 6 times (40 seconds each time) at the highest speed. Tubes were incubated on the ice for 5-10 minutes between each homogenization to cool lysates. The lysates were then centrifuged for 30 minutes at 15,000×g and the supernatants were used for immunoblot analysis.

GR protein = assay: Immunoblot of GR protein in prostate cancer cell lines; assay type: cell-based, human
Experimental: as §1

[3] = enzalutamide-treated 11β-HSD2 tumors
[4] = enzalutamide-treated vector tumors
[5] = LAPC4 xenografts with forced 11β-HSD2 expression, enzalutamide in chow
[6] = enzalutamide-treated LAPC4 xenografts with stable AMFR knockdown

With CNC(=O)c1ccc(N2C(=S)N(c3ccc(C#N)c(C(F)(F)F)c3)C(=O)C2(C)C)cc1F [enzalutamide] the Erlin-2 expression (Erlin-2; LAPC4 cells) was “consistently up-regulated”, the “patient tissues with Erlin-2 up-regulation” value (Erlin-2; human prostate tissues treated with enzalutamide) was 8 of 11 and the “cortisol levels / conversion of [3H]-cortisol to cortisone” value ([1]; long enzalutamide exposure (36 days), LAPC4, cells and media) was “sustains cortisol levels by retarding conversion to cortisone in cells and media”. The cortisol metabolism ([1]; short term Enz treatment (24 hours), LAPC4) was “does not affect cortisol metabolism”, the “percentage of tumor corticosterone of corticosterone plus 11-dehydrocorticosterone” value (tumor corticosterone; [3]) was 33% and the tumor corticosterone concentration (tumor corticosterone; [3]) was 15.1 pmol/g. The “percentage of tumor corticosterone of corticosterone plus 11-dehydrocorticosterone” value (tumor corticosterone; [4]) was 59%, the tumor corticosterone concentration (tumor corticosterone; [4]) was 44.5 pmol/g and the xenograft tumor growth ([2]; LAPC4 Vector xenografts, orchiectomized mice with DHEA, enzalutamide in chow) was “growth of Vector xenografts through enzalutamide therapy”. For the same compound, the progression-free survival [2, 5] was “prolonged progression-free survival”, the xenograft tumor growth [2, 5] was “significantly reversed enzalutamide-resistant growth” and the “sensitivity of xenograft to treatment” value ([2]; VCaP xenografts with 11β-HSD2 expression) was “Reinstatement of sensitivity to enzalutamide treatment”. For the same compound, the progression-free survival [2, 6] was “prolonged progression-free survival”, the xenograft tumor growth [2, 6] was “suppressed xenograft growth” and the GR protein (GR protein; LAPC4) was “increase in GR protein”. The GR protein (GR protein; VCaP and MDA-PCa-2b) was “increase in GR protein”.
